Broadly, the IC50 is the point on the concentration scale where inhibition reaches its midpoint.

Among the data in patent publication US7115749B2, “Substituted 5-oxo pyrazoles and [1,2,4]triazoles as antiviral agents” (priority 2004, dated 2006) are IC50 values, retold here.

Bounds are passed on as bounds.

The assay deals with HCV RNA-dependent RNA polymerase NS5B (Δ21) (Hepatitis C virus genotype 1b, UniProt P26663). The assay is described as follows: Assay for HCV RNA-dependent RNA polymerase activity (SPA, [3H]-GTP incorporation). The format is biochemical. On the procedure: Assay for HCV RNA-dependent RNA Polymerase Activity
Chain of HCV RNA-dependent RNA polymerase NS5B (Δ21) (P26663 2420-2989, stated change not applied): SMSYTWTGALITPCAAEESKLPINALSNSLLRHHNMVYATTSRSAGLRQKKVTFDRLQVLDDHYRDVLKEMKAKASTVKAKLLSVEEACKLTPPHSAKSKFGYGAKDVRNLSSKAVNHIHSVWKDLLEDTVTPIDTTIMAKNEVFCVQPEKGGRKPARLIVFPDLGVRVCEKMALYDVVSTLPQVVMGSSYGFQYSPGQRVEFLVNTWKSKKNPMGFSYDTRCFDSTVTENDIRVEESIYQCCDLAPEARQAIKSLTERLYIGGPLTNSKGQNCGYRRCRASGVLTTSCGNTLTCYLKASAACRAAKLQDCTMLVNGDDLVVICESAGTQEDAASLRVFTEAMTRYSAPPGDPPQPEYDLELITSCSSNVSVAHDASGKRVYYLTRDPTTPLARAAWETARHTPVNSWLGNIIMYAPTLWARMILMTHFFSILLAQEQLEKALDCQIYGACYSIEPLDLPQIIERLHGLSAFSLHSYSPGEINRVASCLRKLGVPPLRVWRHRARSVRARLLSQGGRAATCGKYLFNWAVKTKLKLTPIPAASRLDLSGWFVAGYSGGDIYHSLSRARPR
Inhibitory activity of the present compounds against HCV RNA-dependent RNA polymerase was assayed according to the methods disclosed in U.S. Patent Application U.S.2004/038993, content of which is incorporated herein by reference; and those described in Ferrari, E.; Wright-Minogue, J.; Fang, J. W. S.; Baroudy, B. M.; Lau, J. Y. N.; Hong, Z. J. Virol. 1999, 73, 1649.
Briefly, 50 μl reactions containing 20 mM HEPES (pH 7.3), 7.5 mM DTT, 20 units/ml RNasIN, 0.5 ug/ml biotinylated oligoG12, 5 μg/ml polyC, 5 μM GTP, 20 μCi/ml [^3H]-GTP, 10 mM MgCl2, 60 mM NaCl, 100 μg/ml BSA, and 50 nM NS5B (Δ21) were incubated at room temperature for three hours in 96-well plates with or without test compounds. Assay was terminated by the addition of 50 μl 10 mg/ml streptavidin-coated SPA beads supplemented with 100 mM EDTA, and the incorporation of labeled GTP determined by a TopCount Scintillation Counter. IC50 values were calculated from single experiments using 11 serial 2-fold dilutions (0.05–50 μM), and data were considered reliable only when the IC50 value of a positive internal control was within standard deviation range.
In the case of `O=C(Cn1nc(C(=O)O)cc1OCc1ccccc1-c1ccsc1)N[C@H]1CCCC[C@@H]1OCc1ccccc1` [Compound 58, 1-[(2-benzyloxy-cyclohexylcarbamoyl)-methyl]-5-(2-thiophen-3-yl-benzyloxy)-1H-pyrazole-3-carboxylic acid], it took 0.75 µM to reach half-maximal inhibition (IC50). Compound `CC(C)(C)COc1cc(C(=O)O)nn1CC(=O)N[C@H]1CCCC[C@@H]1OCc1ccccc1` [Compound 59] came in with a half-inhibitory concentration (IC50) of over 12.5 µM.

With `CC(C)COc1cc(C(=O)O)nn1CC(=O)N[C@H]1CCCC[C@@H]1OCc1ccccc1` [Compound 60], the IC50 is over 50 µM. The figure for `O=C(Cn1nc(C(=O)O)cc1OCc1ccccc1I)N[C@H]1CCCC[C@@H]1OCc1ccccc1` [Compound 61] is 6.5 µM; for `Nc1nc2ccc(CNC(=O)Cn3nc(C(=O)O)cc3OCc3ccccc3-c3ccc(C(F)(F)F)cc3)cc2s1` [Compound 62] it is over 12.5 µM; for `O=C(Cn1nc(C(=O)O)cc1OCc1ccccc1-c1ccc(C(F)(F)F)cc1)NCCCc1ccccc1` [Compound 63] it is 12 µM. In turn, `O=C(Cn1nc(C(=O)O)cc1OCc1ccsc1)N[C@H]1CCCC[C@@H]1OCc1ccccc1` [Compound 64] returned an IC50 of over 12.5 µM.

In turn, `O=C(Cn1nc(C(=O)O)cc1OCc1cccnc1)N[C@H]1CCCC[C@@H]1OCc1ccccc1` [Compound 65, 1-[(2-benzyloxy-cyclohexylcarbamoyl)-methyl]-5-(pyridin-3-ylmethoxy)-1H-pyrazole-3-carboxylic acid] registered a half-maximal inhibitory concentration (IC50) of over 12.5 µM.

With `O=C(Cn1nc(-c2nnn[nH]2)cc1OCc1ccccc1-c1ccc(C(F)(F)F)cc1)N[C@H]1CCCC[C@@H]1OCc1ccccc1` [Compound 66, N-(2-benzyloxy-cyclohexyl)-2-[3-(1H-tetrazol-5-yl)-5-(4′-trifluoromethyl-biphenyl-2-ylmethoxy)-pyrazol-1-yl]-acetamide], the midpoint of inhibition, the IC50, lay at 0.057 µM. This lies in the double-digit nanomolar range.
